# From patent EP2716638A1, “Labeled ligands of the oxytocyn receptor” (Université de Strasbourg, priority 2012, dated 2014)
# Experiments:
# OTR = biological target: T1, OTR (Homo sapiens, UniProt P30559); assay: TR-FRET (HTRF) saturation binding assay on SNAP-tag labeled receptor in cells; settings: saturation with fluorescent ligand; mean ± SEM of three independent experiments in triplicate; read-out: Binding, HTRF (Kd, nM) OT
# T1 construct: expressed in transfected cells; host or cells: HEK 293T (printed for the general protocol, whose plasmid sentence names only the V2 receptor)
# T1 sequence (P30559 1-389): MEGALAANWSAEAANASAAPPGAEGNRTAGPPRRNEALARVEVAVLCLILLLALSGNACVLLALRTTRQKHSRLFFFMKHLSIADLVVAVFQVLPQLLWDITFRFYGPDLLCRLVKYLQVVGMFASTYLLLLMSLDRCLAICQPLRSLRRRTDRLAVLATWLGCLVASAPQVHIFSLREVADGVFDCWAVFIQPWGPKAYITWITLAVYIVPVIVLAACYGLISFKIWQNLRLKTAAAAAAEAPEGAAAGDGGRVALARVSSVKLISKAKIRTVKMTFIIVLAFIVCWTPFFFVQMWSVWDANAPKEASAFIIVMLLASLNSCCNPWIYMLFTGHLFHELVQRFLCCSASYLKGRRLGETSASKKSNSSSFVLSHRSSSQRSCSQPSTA
# Protocol: (§1) These assays were performed as described in Zwier et al (Journal of Biomolecular Screening 2010, 15, 1248-1259). Briefly, HEK 293T cells were cultivated in DMEM medium supplemented with 10% foetal calf serum (FCS) and 1% penicillin/streptomycin antibiotics. Confluent cells were dissociated and electroporated with plasmid DNA coding for the V2 receptor fused to the SNAP-tag suicide enzyme. Transfected cells were then plated in black 96-well plates previously coated with poly-ornithine (diluted at 0.1 mg.mL^-1 in sterile water, incubated 30 min at 37°C, washed with sterile PBS). Plates were incubated in supplemented DMEM medium for 48h à 37°C, […] and 5% CO2. Expressed receptors fused to SNAPtag were then labeled with fluorescent substrates, either with a donor (SNAP-Lumi4-Tb) or an acceptor (SNAP-RED) at respectively 100 or 300 nM in 100 µL of Tag-lite® labeling medium, for 1 h at 37 °C. Cells were then washed 3 times in Tag-lite medium and then incubated with the fluorescent ligands. For saturation assays, increasing concentrations of fluorescent ligands were diluted in 100 µL of Tag-lite medium. For competition assays, a fixed concentration of fluorescent ligand (typically 20 nM) was mixed with an increasing concentration of cold competitor ligand (in this case AVP) in Tag-lite medium. After overnight incubation at 4 °C (to prevent any internalization phenomenon), plates were read in an HTRF®-compatible multi-well plate reader with a classic HTRF® protocol (excitation at 340 nm, donor emission measured at 620 nm and acceptor emission at 665 nm, 50 µs delay, 500 µs integration).
# (§2) Fluorescent compounds 21 to 24 were involved in the development of a TR-FRET based assay for both V1aR and OTR. Such technique usually offers a higher signal-to-noise ratio than classic FRET because of the long-lasting fluorescence of the lanthanide cryptate. TR-FRET based saturation experiments with fluorescent compounds 21 to 24 were performed on V1a, OT and V2 receptors labeled with the SNAP-tag® approach: cells expressing a receptor of interest fused to SNAP-tag are incubated in the presence of a fluorescent substrate to label the receptor. Cells were then incubated in the presence of increasing concentrations of a fluorescent ligand. Fluorophores of the SNAP-tag substrates and of the ligands are chosen to be compatible with time-resolved FRET. SNAP-tagged receptors were labeled either with a Lumi4-Tb donor (SNAP-Lumi4-Tb) or d2 acceptor (SNAP-red) depending on the nature of the ligands, either acceptor (21, 22) or donor (23, 24). Saturation curves were obtained when plotting specific FRET signal as a function of fluorescent compounds concentration; non-specific binding was determined in the presence of an excess of the unlabeled corresponding ligands (10 µM) (Figure 1).
# V2 receptor = biological target: T2, V2 receptor (Homo sapiens, UniProt P30518); assay: as above; settings: saturation with fluorescent ligand; mean ± SEM of three independent experiments in triplicate
# T2 construct: expressed in transfected cells; host or cells: HEK 293T
# Protocol: as §1, §2
# V1aR = biological target: T3, V1aR (Homo sapiens, UniProt P37288); assay: as above; settings: saturation with fluorescent ligand; mean ± SEM of three independent experiments in triplicate; read-out: Binding, HTRF (Kd, nM) V1a
# T3 construct: expressed in transfected cells; host or cells: HEK 293T (printed for the general protocol, whose plasmid sentence names only the V2 receptor)
# Protocol: as §1, §2
# cAMP accumulation [1] = assay: cAMP accumulation functional assay (agonist and antagonist mode); type: cell-based
# cAMP accumulation [2] = assay: as above; type: cell-based; remark: listed apart in the source
# [3] = cell incubation with fluorescent compound at a concentration of 100-fold Ki
# T2 sequence (P30518 whole entry): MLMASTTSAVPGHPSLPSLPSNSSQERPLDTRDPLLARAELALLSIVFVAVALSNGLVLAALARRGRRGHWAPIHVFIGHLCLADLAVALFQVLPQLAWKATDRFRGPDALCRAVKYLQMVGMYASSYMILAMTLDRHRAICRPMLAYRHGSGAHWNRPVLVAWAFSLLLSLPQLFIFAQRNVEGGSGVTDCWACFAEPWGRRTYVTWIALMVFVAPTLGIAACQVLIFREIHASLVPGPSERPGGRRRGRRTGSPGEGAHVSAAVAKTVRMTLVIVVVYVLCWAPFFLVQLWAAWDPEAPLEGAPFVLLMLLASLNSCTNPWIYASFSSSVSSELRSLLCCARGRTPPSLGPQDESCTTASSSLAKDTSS
# T3 sequence (P37288 whole entry): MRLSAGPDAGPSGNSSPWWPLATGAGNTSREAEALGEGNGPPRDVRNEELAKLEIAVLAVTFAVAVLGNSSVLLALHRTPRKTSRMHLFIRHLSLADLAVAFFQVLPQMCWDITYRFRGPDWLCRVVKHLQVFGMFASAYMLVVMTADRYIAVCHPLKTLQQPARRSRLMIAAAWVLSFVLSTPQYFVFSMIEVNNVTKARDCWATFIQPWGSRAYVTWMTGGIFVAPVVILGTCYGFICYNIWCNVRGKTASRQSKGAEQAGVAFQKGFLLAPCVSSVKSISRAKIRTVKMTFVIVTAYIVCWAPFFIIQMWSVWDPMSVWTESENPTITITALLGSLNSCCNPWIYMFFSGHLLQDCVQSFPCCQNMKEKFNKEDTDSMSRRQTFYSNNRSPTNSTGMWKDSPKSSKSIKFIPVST
Compound,Kd (OTR),Kd (V2 receptor),Kd (V1aR),"EC50 (cAMP accumulation [1]; cAMP accumulation, agonist potency, read-out: Kact)",cyclic adenosine monophosphate (cAMP) accumulation (intrinsic agonist activity) (cAMP accumulation [1]; [3]),cyclic adenosine monophosphate (cAMP) accumulation (intrinsic agonist activity) (cAMP accumulation [2]; [3]),"inhibition of AVP-induced cAMP accumulation (cAMP accumulation [2]; dose-dependent, antagonist mode)"
CCN1C(=CC=CC=CC2=[N+](CC)c3ccc(S(=O)(=O)[O-])cc3C2(C)C)C(C)(CCCC(=O)NCCOCCOCCOCCN2CCN(CCCCCCOc3cccc(C)c3-n3c(C)nnc3-c3ccc(-c4ccccc4)cc3)CC2)c2cc(S(=O)(=O)O)ccc21 (stereo not shown) [Compound 22],11 ± 2 nM,> 1000 nM,10 ± 2 nM,,,,
arginine vasopressin [AVP],,,,0.29 nM,full agonist properties,,
CCN1C(=CC=CC=CC2=[N+](CC)c3ccc(S(=O)(=O)[O-])cc3C2(C)C)C(C)(CCCC(=O)NCCOCCN2CCN(CCCCCCOc3cccc(C)c3-n3c(C)nnc3-c3ccc(-c4ccccc4)cc3)CC2)c2cc(S(=O)(=O)O)ccc21 (stereo not shown) [Compound 21],7 ± 2 nM,> 1000 nM,6 ± 2 nM,,,No significant increase in accumulation of second messengers,fully inhibited
